{
  "source": "patent US9688708B2",
  "about": "“Photolabile compounds” (The Trustees of Columbia University In The City of New York, priority 2003, dated 2017)",
  "key": {"[1]": {"experiment": "UV-vis spectra of Ru(bpy)2(4AP)2 before and after photolysis; dark stability and recombination", "type": "physicochemical", "procedure": "The photoproducts after exposure to light were Ru(bpy)2(4AP)(H2O) and free 4AP.\n(§1) UV-vis spectra in water were obtained with an HP 8453 diode array spectrophotometer. RMN ^1H spectra were obtained using a Bruker 500 MHz equipment. CV measurements were performed with a PAR 273A potentiostat. Irradiation was effected by means of a pulsed Xe lamp, (pulse energy ˜0.5 J), with a low-pass filter at 480 nm. Irradiation using a 473 nm DPSS laser gave similar results."}, "[2]": {"experiment": "1H NMR before and after irradiation with visible light (photorelease of 4AP)", "type": "physicochemical", "settings": "after irradiation with visible light, from NMR signal integration", "procedure": "as §1\nAlthough at pH 7 the spectrum of the irradiated complex is very similar to that of the original complex, a diminished shoulder at 470 nm becomes evident. To determine the nature of the photoreaction, NMR spectra were taken before and after irradiation with visible light. […] After irradiation, this signal decreased, and two new signals appeared at lower fields: one corresponding to the free ligand (m3), and the other corresponding to the aquo-4AP complex (m2), indicating photorelease of the 4AP. These two latter signals integrated for 0.30 and 0.27 of the initial signal, which corresponds to a photoreaction of 60%."}, "[3]": {"experiment": "Cyclic voltammetry in water, RuIII/RuII redox potential", "type": "physicochemical", "settings": "measured in water", "procedure": "The supporting electrolyte was KNO3 (1 M). dE/dt=100 mV/s in glassy carbon electrode.\nas §1\n(§2) (See, e.g., E. S. Dodsworth et al., 1986, Chem. Phys. Lett., 124:152-158). The photoactivity of these compounds has been explained in terms of a reaction pathway that involves the transition between the MLCT state to a lower-energy d-d state, which promotes ligand release. There is a direct correspondence between the energy of the MLCT transition and the quantum yield of the photoreaction. For [Ru(bpy)2(4AP)CH3CN]^2+, the photoreaction yield is about φPR=0.4. Since [Ru(bpy)2(4AP)2]Cl2 presents a red-shifted band, a lower photoreaction yield is expected. An estimate based on early experiments leads to an estimate of φPR≅0.02 at 473 nm."}, "[4]": {"experiment": "Quantum yield of the photoreaction", "type": "physicochemical", "from_the_text": "as §2"}, "[5]": {"system": "Retzius (Rz) cells in the ganglion", "experiment": "Intracellular voltage recording of leech ganglion neuron with Xe flash irradiation", "type": "cell-based, Hirudo medicinalis", "settings": "for action potential activity on addition to saline, before irradiation: ~100 μM in saline, no light flash; for action potential activity after light flash: pulsed Xe lamp flash, UV removed by band-pass filter at 500 nm", "procedure": "Hirudo medicinalis has a central nerve cord with several ganglia, each one containing about 400 neurons arranged in a known pattern. (W.-R. Schlue et al., 1980, J. Exp. Biol., 82:23-34). An entire ganglion was mounted on a dish. The transmembrane potential for a single cell (a neuron) in the ganglion was recorded by inserting inside the neuron a glass micropipet with a micrometer-sized end, filled with saturated aqueous KCl that acts as a luggin bridge for an Ag/AgCl electrode. Another Ag/AgCl electrode was used as a reference. The signal was taken with an AM-System 1600 amplifier, and the entire setup was covered with a Faraday cage. A 12 bit A/D acquisition card was used to digitize the data using an ad-hoc program written in QuickBasic.\nLow Ca^2+-high Mg^2+ saline solution (NaCl, 102 mM; KCl, 4 mM; CaCl2: 1 mM; and MgCl2: 10 mM; Tris base, pH 5.4 adjusted to 7.4) was perfused through the dish. […] A pulsed Xe lamp located under the dish was used to irradiate the solution. UV light was removed using a band-pass filter at 500 nm.\nAfter impaling the cell with an electrode, many experiments were performed on the same cell to ensure reproducibility. […] 300 seconds later, at 5500 s, a light flash was directed to the ganglion."}, "[6]": {"experiment": "Photorelease of TzGly by localized irradiation", "type": "physicochemical", "settings": "irradiation at 470 nm, light spot diameter <1 micron"}, "mouse cortical neuron": {"system": "mouse cortical neuron", "experiment": "Whole-cell patch-clamp of mouse cortical neuron, perfusion of TzGly", "type": "cell-based", "settings": "1 μM", "from_the_text": "FIGS. 13A and 13B: FIG. 13A depicts the structure of TzGly. […] The measurement results were obtained by the whole-cell patch-clamp method, as known and used in the art."}},
  "note": "Where two headings read alike, the source gives them in different places.",
  "data": [
    {"compound": "[Ru(bpy)2(4AP)2]Cl2", "values": [
      {"measurement": "time without dark decomposition", "setting": "[1]; in the dark, UV-vis", "result": "more than 20 hours"},
      {"measurement": "4AP recombination", "setting": "[1]; irradiated solution after 7 hours in the dark", "result": "less than 4%"},
      {"measurement": "photoreaction (photorelease of 4AP)", "setting": "[2]", "result": 60, "unit": "%"},
      {"measurement": "redox potential of the couple RuIII/RuII", "setting": "[3]", "result": 0.76, "unit": "V versus Ag/AgCl"},
      {"measurement": "photoreaction yield φPR", "setting": "[4]; at 473 nm, estimate based on early experiments", "result": "~0.02"},
      {"measurement": "action potential activity on addition to saline, before irradiation", "setting": "[5]", "result": "the activity remained unchanged"},
      {"measurement": "action potential activity after light flash", "setting": "[5]; ~100 μM", "result": "sudden activity was recorded and it remained high after 300 s"},
      {"measurement": "action potential activity after second light pulse", "setting": "[5]; ~100 μM, second light pulse at 6750 s", "result": "an even higher activity"}
    ]},
    {"compound": "[Ru(bpy)2(TzGly)(py)]Cl2", "values": [
      {"measurement": "photorelease on irradiation", "setting": "[6]", "result": "photoreleased TzGly"}
    ]},
    {"compound": "NC(C(=O)O)c1nnn[nH]1", "note": "(racemic) [TzGly, (RS)-(tetrazol-5-yl)glycine]", "values": [
      {"measurement": "neuron spiking on addition via perfusion", "setting": "mouse cortical neuron", "result": "spiking of a mouse cortical neuron"}
    ]},
    {"compound": "[Ru(bpy)2(4AP)CH3CN]^2+", "values": [
      {"measurement": "photoreaction yield φPR", "setting": "[4]", "result": "~0.4"}
    ]},
    {"compound": "[Cl][Ru][Cl].c1ccc(-c2ccccn2)nc1.c1ccc(-c2ccccn2)nc1.c1ccc(-c2ccccn2)nc1", "note": "[Ru(bpy)3Cl2, reference compound]", "values": [
      {"measurement": "action potential activity on addition to saline, before irradiation", "setting": "[5]", "result": "without significant changes in activity"},
      {"measurement": "action potential activity after light flash", "setting": "[5]; ~100 μM", "result": "after a short time the activity decreased to the basal level"}
    ]}
  ]
}
